Calls of active or inactive are those of the source. No rule for the calls is given here.
System: MRP1 cells, doxorubicin viability shift, 10 uM compound
Test: doxorubicin EC50 increase in MRP-1 cells, dose response, cell-based, doxorubicin EC50 shift (AID 844)
Conditions: for EC50: measured here: doxorubicin EC50 with compound

Row | SMILES | fold increase in Dox EC50 | EC50
1 | CCOC(=O)c1ccc(Oc2nc(NC(C)(C)C)nc(N(C)C)n2)cc1 | 0.82 (inactive) | 4.43 µM
2 | COc1ccc(-c2[nH]ncc2-c2cnn(-c3ccccc3)c2)c(O)c1 | 0.27 (inactive) | 1.43 µM
3 | Cc1ccc(/C=N/NC(=O)CSCc2ccc(Cl)cc2)cc1 | 1.19 (inactive) | 6.44 µM
4 | FC(F)(F)c1cccc(CNc2ncccc2-c2nc3cc(Cl)ccc3o2)c1 | 0.93 (inactive) | 5.03 µM
5 | COc1ccc(C(C)=O)cc1CSc1nnc(Nc2ccccc2C)s1 | 0.75 (inactive) | 4.04 µM
6 | Cc1ccc(C2=CC(C)(c3ccc(C)cc3)Nc3nc(C(F)(F)F)nn32)cc1 (stereo not drawn) | 0.94 (inactive) | 5.1 µM
7 | COc1ccc(NC(=O)c2oc3ccccc3c2NC(=O)C(C)(C)C)cc1 | 0.63 (inactive) | 3.41 µM
8 | CC(CCc1ccccc1)NC(=O)c1nnc(Cc2ccc(Cl)cc2)o1 (stereo not drawn) | 1.13 (inactive) | 6.1 µM
9 | COc1ccc(-c2nc(-c3cccc(C)c3)no2)cc1OC | 0.69 (inactive) | 3.73 µM
10 | Cc1ccc(-c2cc(C(F)F)nc(NCc3cccnc3)n2)cc1 | 0.52 (inactive) | 2.81 µM
11 | CC1CCc2c(C(=O)OCC(=O)Nc3cccc(S(=O)(=O)N4CCCCCC4)c3)csc2C1 (stereo not drawn) | 1.05 (inactive) | 5.68 µM
12 | Cc1ccc(NC(=O)Cc2csc(-c3ccccc3)n2)cc1F | 1.22 (inactive) | 6.6 µM
13 | CCOC(=O)c1c(-c2cccc([N+](=O)[O-])c2)csc1NC(=O)C1CCCCC1 | 0.34 (inactive) | 1.84 µM
14 | C=C1c2cc(CC)ccc2NC(=O)N1c1ccc(C)cc1 | 0.44 (inactive) | 2.37 µM
15 | O=C(COc1ccc(Br)cc1)c1ccc2c(c1)CCCC2 | 1.17 (inactive) | 6.29 µM
16 | COc1cccc(/C=N/NC(=O)CNC(=O)C2COc3ccccc3O2)c1O (stereo not drawn) | 0.12 (inactive) | 0.637 µM
17 | O=C(NNC1=C(C(=O)C(F)(F)F)CCC1)c1cccc(Cl)c1 | 1.03 (inactive) | 5.54 µM
18 | CC(=O)N1CCN=C1SCc1ccc(C)cc1 | 0.87 (inactive) | 4.67 µM
19 | CC1CCC/C(=C(\C#N)c2nc(-c3cc4ccccc4oc3=O)cs2)C1 (stereo not drawn) | 0.55 (inactive) | 2.96 µM
20 | Cc1ccc(/C=C2\SC(=S)N(CCC(=O)NNS(=O)(=O)c3ccc(C)cc3)C2=O)cc1 | 0.48 (inactive) | 2.6 µM
21 | N#C/C(=N/Nc1ccccc1F)C(=N)N1CCOCC1 | 0.99 (inactive) | 5.33 µM
22 | CCOC(=O)c1c(-c2cccs2)csc1NC(=O)CSc1ncn[nH]1 | 0.2 (inactive) | 1.09 µM
23 | N#Cc1nc(COc2ccccc2)oc1N1CCCC1 | 0.77 (inactive) | 4.13 µM
24 | O=C(CC(Nc1ccc(F)cc1)C(=O)OCC(=O)c1cccs1)c1ccccc1 (stereo not drawn) | 0.69 (inactive) | 3.73 µM
25 | Cn1nnc(NC(=O)COc2ccc(C3CCCCC3)cc2)n1 | 1.49 | 8.05 µM
26 | CC(C)CNC(=O)c1c(N)n(/N=C/c2ccccn2)c2nc3ccccc3nc12 | 0.94 (inactive) | 5.08 µM
27 | CCc1ccc(/C(C)=N/Nc2cc(Cl)nc(C)n2)cc1 | 0.69 (inactive) | 3.75 µM

Row | SMILES | fold increase in Dox EC50 | EC50
28 | CCCCCC(=O)Nc1ccc(S(=O)(=O)Nc2ccc(Cl)nn2)cc1 | 1.12 (inactive) | 6.04 µM
29 | CC(=O)Nc1ccc2[nH]c(C)c(CC=C(Cl)Cl)c(=O)c2c1 | 0.72 (inactive) | 3.87 µM
30 | CCc1nnc(NC(=O)c2ccc(S(=O)(=O)N(CC)CC)cc2)s1 | 0.69 (inactive) | 3.73 µM
31 | Cc1ccc2[nH]c(=O)c(C(c3nnnn3C3CCCC3)N3CCCc4ccccc43)cc2c1 (stereo not drawn) | 1 (inactive) | 5.41 µM
32 | Cc1nnc(NC(=O)COc2ccccc2)s1 | 1.25 (inactive) | 6.73 µM
33 | Cc1ccc(C)c2sc(NC(=O)c3ccc(N4CCCCC4)c([N+](=O)[O-])c3)nc12 | 1.05 (inactive) | 5.66 µM
34 | CCOC(=O)CCCCC(=O)c1[nH]c(=O)[nH]c1CSc1nc(-c2ccccc2)c(C#N)c(=O)[nH]1 | 1.22 (inactive) | 6.57 µM
35 | COC(=O)c1ccc(COc2cc(O)c3c(c2)OC(C)(C)CC3=O)cc1 | 1.03 (inactive) | 5.56 µM
36 | Cc1nnc(NC(=O)c2c(F)cccc2F)s1 | 1.23 (inactive) | 6.63 µM
37 | CCc1nnc(NC(=O)c2ccc(S(=O)(=O)NCC(C)C)cc2)s1 | 0.53 (inactive) | 2.88 µM
38 | Cc1cccc(CC2S/C(=N/c3ccccn3)NC2=O)c1 (stereo not drawn) | 1.15 (inactive) | 6.22 µM
39 | Cc1noc(/C=C/N(C)C)c1S(=O)(=O)N1CCCC(C(=O)NC2CCCCC2)C1 (stereo not drawn) | 0.97 (inactive) | 5.23 µM
40 | N#CCn1nnc(-c2ccc3c(c2)OCO3)n1 | 1.01 (inactive) | 5.43 µM
41 | c1coc(C2Nc3cccc4cccc(c34)N2)c1 | 0.21 (inactive) | 1.13 µM
42 | COc1ccc(C2CC(c3ccccc3)=NN2C(=O)COC(=O)c2cccnc2Cl)cc1 (stereo not drawn) | 0.63 (inactive) | 3.4 µM
43 | Cn1c(=O)oc2cc(S(=O)(=O)N3CCCC(C(=O)NCC4COc5ccccc5O4)C3)ccc21 (stereo not drawn) | 0.53 (inactive) | 2.86 µM
44 | COc1ccc(-c2nn(-c3ccccc3)cc2C(=O)Nc2nc(CC(C)=O)ns2)cc1 | 0.99 (inactive) | 5.32 µM
45 | COc1ccc(-c2cc(C(=O)Nc3sc4c(c3C#N)CCCC4)c3ccccc3n2)cc1 | 1.18 (inactive) | 6.37 µM
46 | CCCOC(=S)NC(=O)c1sc2ccccc2c1Cl | 1.25 (inactive) | 6.75 µM
47 | Cc1ccc(Cl)cc1N1CCN(C(=O)Cc2ccc(-n3c(=O)[nH]c4ccsc4c3=O)cc2)CC1 | 0.78 (inactive) | 4.24 µM
48 | Nc1ccc(C(=O)OCC(=O)N2c3ccccc3Sc3ccccc32)cc1[N+](=O)[O-] | 1.29 (inactive) | 6.97 µM
49 | Cc1c(C(=O)OC(C)C)sc(N)c1C(=O)OC(C)C | 0.94 (inactive) | 5.08 µM
50 | C=CCSC1=NC(=O)/C(=C/c2cccs2)S1 | 1.13 (inactive) | 6.1 µM
51 | O=C(O)c1cccc(N2C(=O)C3CC=C(Cl)CC3C2=O)c1 (stereo not drawn) | 1.48 (inactive) | 7.97 µM
52 | CCN(C(=O)c1cc2cc3ccc(C)cc3nc2o1)c1ccc(OC)cc1 | 0.64 (inactive) | 3.46 µM
53 | COc1ccc(/C=N/Nc2cc(C)nc(-n3nc(C)cc3C)n2)cc1 | 0.12 (inactive) | 0.656 µM
54 | O=[N+]([O-])c1ccc(O)c(/C=N/n2cnc3ccccc32)c1 | 0.67 (inactive) | 3.61 µM

From PubChem BioAssay AID844 (SRMLSC, 2007)
